Data published in paper PMC8582824, “Targeting DDX3X Helicase Activity with BA103 Shows Promising Therapeutic Effects in Preclinical Glioblastoma Models” (Cancers, 2021).
Where two headings read alike, the source gives them in different places.

What was measured:
[1] = test system: A549, MDA-MB-231, HCT-116, U2OS, RD18, DBTRG, U87, U251 and DAOY cancer cell lines; test: Cytotoxicity on additional cancer cell lines; assay type: cell-based; conditions: 72 h
Procedure: For CellTiter 96® Aqueous One Solution Cell Proliferation Assay (MTS) (Promega, Madison, WI, USA), cells were seeded at 5 × 10^3 per well in 96-well plates in quadruplicate together a control with no cells to evaluate the background. After 24 h, the culture medium was removed, and fresh medium containing increasing concentrations of chemical compounds was added to cells. The fixed final concentrations were 0.1 μM, 1 μM, 10 μM, and 100 μM. DMSO was the vehicle used for dilution of the compounds, and its final concentration on cells was less than 0.2%. Medium-only containing wells were included as controls. […] After 3 h at 37 °C in a humidified, 5% CO2 atmosphere, the absorbance at 492 nm was recorded using an EZREAD400 (Biochrom, Cambridge, United Kingdom) plate reader. The average 490 nm absorbance from the “no cell” control wells was subtracted from all other values to yield background-corrected absorbance. Dose–response curves and CC50 values have been calculated by plotting the absorbance data as a function of inhibitor concentrations and fitting the data by least-squares nonlinear regression, according to the method of Marquardt–Levenberg, with the computer program GraphPad Prism 6.0.
Cells were incubated with a scalar concentration of DDX3X inhibitors, and after 72 h of treatment, cell viability was assessed by cytotoxicity assay. […]

[2] = PK and biodistribution in BALB/c mice; assay type: in vivo; conditions: for half-life: 50 mg/kg
Procedure: Figure 8 PK and biodistribution of BA103 in BALB/c mice at the single dose of 50 mg/kg i.p. (A) Plasmatic distribution and PK parameters. Concentration levels ± SD of BA103 in (B) kidneys, (C) liver, and (D) brain. TEXT PRINTED IN THE PICTURE: (A) no label printed: t1/2 (min): 299.6; Cmax (μg/ml): 18.2; AUC 0-t (μg/ml*min): 1817.6; AUC 0-inf_obs (μg/ml*min): 1850.7; Vz/F_obs ((mg/kg)/(μg/ml)): 11.7; Cl/F_obs ((mg/kg)/(μg/ml)/min): 0.1 DOUBTS OF THE COPYIST ABOUT THIS PICTURE: Panel A table: the picture prints no substance label / Panel A table, Vz/F_obs and Cl/F_obs: the underscore may be hidden by the table line (could be 'Vz/F obs', 'Cl/F obs')
Thus, preliminary PK and biodistribution studies were performed on two groups of BALB/c mice (CTRL and BA103-treated) at the single intraperitoneal (i.p.) dose of 50 mg/kg. BA103 was slowly eliminated from plasma, with a half time (t1/2) of about 5 h. […] Even if the PK analysis was conducted in healthy mice, with an intact BBB, the data are of great importance, since the majority of drugs are unable to reach the tumor environment due to their low permeability.

[3] = BALB/c, mouse, ip, plasma, single dose 50 mg/kg i.p.

AUC(0-t) [2, 3]: 30.3 µg·h/mL | Cmax [2, 3]: 18.2 µg/mL | AUC(0-inf) ([2]; BALB/c, mouse, ip, plasma, single dose 50 mg/kg i.p., read-out: AUC 0-inf_obs (converted)): 30.8 µg·h/mL | half-life ([2]; BALB/c, mouse, plasma, ip, plasma, single dose 50 mg/kg i.p., read-out: t1/2): 4.99 h | half-life ([2]; BALB/c, mouse, plasma, ip, single dose 50 mg/kg i.p., read-out: half time (t1/2) of elimination from plasma (converted)): ~5 h | CL/F ([2]; BALB/c, mouse, plasma, ip, single dose 50 mg/kg i.p.): 6 L/h/kg | Vd/F ([2]; BALB/c, mouse, plasma, ip, single dose 50 mg/kg i.p., read-out: Vz/F_obs): 11.7 L/kg | brain distribution / blood–brain barrier crossing ([2]; healthy mice, 50 mg/kg i.p.): ability to cross the blood–brain barrier
SMILES: CCCCc1cn(-c2ccc(NC(=O)Nc3ccccc3C(F)(F)F)cc2)nn1 [BA103, 1-(4-(4-Butyl-1H-1,2,3-triazol-1-yl)phenyl)-3-(2-(trifluoromethyl)phenyl)urea]
CC50s against the additional cell lines [1]: micromolar CC50s
